# Patent publication US20190367737A1, “CELL-PENETRATING FLUORESCENT DYES WITH SECONDARY ALCOHOL FUNCTIONALITIES” (Max-Planck-Gesellschaft zur foerderung der Wissenschaften …, priority 2016, published 2019)
# Where “and” joins values, the source holds several entries; their conditions need not be identical. Equal entries are not always repeated. Where two headings read alike, the source gives them in different places.
# Experiments:
# [1] = Formation and stability of the NHS ester; type: physicochemical
# Method: • Three stock solutions (A, B and C) were prepared. Solution A: 22 mg HATU (1-[bis(dimethylamino)methylene]-1H-1,2,3-triazolo[4,5-b]pyridinium 3-oxid hexafluorophosphate) in dry DMF (0.10 mL); solution B: Et3N (10 mg) in dry DMF (0.10 mL); solution C: N-hydroxysuccinimide (19 mg) in dry DMF (0.10 mL). To a solution of dye 5 (1.7 mg, 2.6 μmol) in dry DMF (0.10 mL), solutions A, B and C were added successively (14 μL of each solutions) under argon, and the mixture was stirred for 30 min at room temperature. HPLC analysis indicated the conversion degree of 94-95%. […] After removing DMF in vacuo, amide 5-Halo was isolated by preparative HPLC (˜1 mg, 46%), dissolved in DMSO (400 μL), and this stock-solution was used (after dilution with aqueous PBS to 1-5 μM) in labeling experiments with living cells (see section with imaging results). ESI-MS (C41H44C1F6N308, 855.27), positive mode: m/z (rel. int., %)=856 (100) [M+H]^+. HR-MS, ESI (positive mode): m/z=878.2591 (found [M+Na]^+), 878.2613 (calc.).
# [2] = cited from earlier work
# [3] = Solubility in water and organic solvents; type: physicochemical; settings: water, aqueous solutions, alcohols, DMSO, DMF, organic solvents as stated
# [4] = Absorption, emission and fluorescence quantum yield of the dyes; type: physicochemical; settings: for fluorescence quantum yield relative to Oxazine 1: PBS 7.4, Oxazine 1 Φfl=0.14 in ethanol; for fluorescence quantum yield: in PBS / aqueous buffers
# Method: Absorption spectra were recorded with a Varian Cary 4000 UV-Vis double-beam spectrophotometer (Agilent Technologies, USA). For the determination of the absorption spectra, quartz cells with a 1 cm path length were used. Emission spectra and fluorescence quantum yield were obtained on a Quantaurus-QY Absolute PL quantum yield spectrometer C11347 (Hamamatsu Photonics, Japan) or on a Varian Cary Eclipse fluorescence spectrometer (Agilent Technologies, USA).
# [5] = test system: vimentin-HaloTag fusion protein in U2OS cells; test: Live-cell labeling, confocal and STED imaging, U2OS cells; type: cell-based; settings: 1 μM, 20 minutes at 37° C.
# Method: (§1) Either HeLa or U2OS cells were used. Cells were grown on #1.5 coverslips and cultured at 37° C. with 5% CO2 in DMEM (Dulbecco's modified Eagle's medium) supplemented with 10% FBS (fetal bovine serum), 1% sodium pyruvate and 1% penicillin/streptomycin. The U2OS cell line is a stable cell line which has a stable expression of the vimentin-HaloTag fusion protein (M. Ratz, I. Testa, S. W. Hell, S. Jakobs, Sci. Rep. 2015, 5, 9592). For the expression of vimentin-HaloTag fusion protein in HeLa cells, cells were transfected with 3 μg DNA/well using TurboFect™ Transfection Reagent (Fermentas/Thermo Scientific™, Life Technologies brand) in a 6 well plate. […]
# (§2) Fluorescence detection was done in two spectral detection channels, 605-625 nm and 650-720 nm. […]
# 14a-Halo was excited with a pulsed 561 nm laser and fluorescence was detected in both detection windows: 605-625 nm and 650-720 nm. […] For the STED image the fluorescence counts of 3 scans per line were accumulated with a pixel dwell time of 15 μs. […]
# 6-ROX-Halo was excited with a pulsed 561 nm laser and fluorescence was detected in two detection windows: 605-625 nm and 650-720 nm. […] For the STED image the fluorescence counts of 3 scans per line were accumulated with a pixel dwell time of 15 μs. […]
# 19-Halo was excited with a pulsed 640 nm laser and fluorescence was detected from 650-720 nm. […]
# [6] = D0.5 in 1,4-dioxane/water (closing into colorless spirolactone form); type: physicochemical
# [7] = test system: tubulin filaments in HeLa cells; test: Live-cell tubulin labeling, confocal and STED imaging, HeLa cells; type: cell-based; settings: 1-5 μM, 20 minutes at 37° C.
# Method: as §1, §2
# 19-Tubulin was excited with a pulsed 640 nm laser and fluorescence was detected from 650-720 nm. […] For the STED image the fluorescence counts of 4 scans per line were accumulated with a pixel dwell time of 7 μs. […]
# 33-Tubulin was excited with a pulsed 640 nm laser and fluorescence was detected from 650-720 nm. […] The STED image was recorded with a pixel dwell time of 15 μs. […]
# [8] = aqueous PBS buffer, parent Q-rhodamine
# [9] = aqueous solutions, dye 5 isomer 3
# [10] = commercial dyes, solvent not stated
compound,measurement,setting,value
5(6)-carboxy-Q-rhodamine,stability of N-hydroxysuccinimidyl (NHS) ester,[1],does not form a stable N-hydroxysuccinimidyl ester
same,absorption maximum,[2]; [8],540 nm
same,emission maximum,[2]; [8],561 nm
same,extinction coefficient ε,[2]; [8],70 000 M^−1 cm^−1
same,fluorescence quantum yield,[2]; [8],0.79
"O=C(O)c1ccc(C(=O)[O-])c(C2=c3cc4c(cc3Oc3cc5c(cc32)CC(O)CN5CC(F)(F)F)=[N+](CC(F)(F)F)CC(O)C4)c1 (stereo not drawn) [Compound 5, N,N′-Bis-(2,2,2-trifluoroethyl)-6′-carboxy-Q-rhodamine-β,β′-diol]",solubility,[3],water-soluble
same,solubility,[3]; listed as 5-OH,much better soluble
same,absorption maximum λmax,[4]; [9],532 nm
same,emission maximum λmax,[4]; [9],553 nm
same,extinction coefficient ε,[4]; [9],56000 M⁻¹ cm⁻¹
same,"fluorescence quantum yield Φfl, absolute value","[4]; aqueous solutions, excitation at 488 nm, dye 5 isomer 3",0.89
same,stability of N-hydroxysuccinimidyl (NHS) ester,[1],forms a stable NHS ester
"COc1cc2c(c(Cl)c1O)Oc1c(cc(OC)c(O)c1Cl)C21OC(=O)c2ccc(C(=O)O)cc21 [Compound 6-JOE, 6-JOE]",absorption maximum,[2]; [10],520 nm
same,emission maximum,[2]; [10],548 nm
same,extinction coefficient ε,[2]; [10],75 000 M^−1 cm^−1
CN(C)c1ccc2[c](c1)[Ge]([CH3])([CH3])[c]1cc(N(C)C)ccc1C21OC(=O)c2ccc(C(=O)NCCOCCOCCCCCCCl)cc21 [Compound 19-Halo],imaging performance in living cells (confocal and STED),[5],high contrast images
CN(C)c1ccc2[c](c1)[Ge]([CH3])([CH3])[c]1cc(N(C)C)ccc1C21OC(=O)c2ccc(C(=O)O)cc21 [Compound 19],fluorescence quantum yield relative to Oxazine 1,[4],0.43
same,absorption maximum λmax,[4]; PBS buffer pH 7.4,634 nm
same,emission maximum λem,[4]; PBS buffer pH 7.4,655 nm
same,extinction coefficient ε,[4]; PBS buffer pH 7.4,97000 M⁻¹ cm⁻¹
same,fluorescence quantum yield,[4],0.43
same,"D0.5 in 1,4-dioxane/water",[6],65.2
[CH3][Ge]1([CH3])[c]2cc(N3CC(O)C3)ccc2C2(OC(=O)c3ccc(C(=O)NCCOCCOCCCCCCCl)cc32)c2ccc(N3CC(O)C3)c[c]21 [Compound 33-Halo],absorption maximum λmax,[4]; PBS buffer pH 7.4,639 nm
same,emission maximum λem,[4]; PBS buffer pH 7.4,660 nm
[CH3][Ge]1([CH3])[c]2cc(N3CC(O)C3)ccc2C2(OC(=O)c3ccc(C(=O)O)cc32)c2ccc(N3CC(O)C3)c[c]21 [Compound 33],absorption maximum λmax,[4]; PBS buffer pH 7.4,631 nm
same,emission maximum λem,[4]; PBS buffer pH 7.4,651 nm
same,extinction coefficient ε,[4]; PBS buffer pH 7.4,61000 M⁻¹ cm⁻¹
same,"fluorescence quantum yield Φfl, absolute value",[4]; PBS buffer pH 7.4,0.60
same,fluorescence quantum yield,[4],0.60
same,imaging performance in living cells (confocal and STED),[7],higher brightness
C[Si]1(C)c2cc(N3CC(O)C3)ccc2C2(OC(=O)c3ccc(C(=O)O)cc32)c2ccc(N3CC(O)C3)cc21 [Compound 42],fluorescence quantum yield relative to Oxazine 1,[4],0.42
same,absorption maximum λmax,[4]; PBS buffer pH 7.4,641 nm
same,emission maximum λem,[4]; PBS buffer pH 7.4,662 nm
same,extinction coefficient ε,[4]; PBS buffer pH 7.4,51500 M⁻¹ cm⁻¹ and 51000 M⁻¹ cm⁻¹
same,fluorescence quantum yield,[4],0.42
same,"D0.5 in 1,4-dioxane/water",[6],72.4
"C[Si]1(C)c2cc(N3CCC3)ccc2C2(OC(=O)c3ccccc32)c2ccc(N3CCC3)cc21 [JF646, reference compound]",fluorescence quantum yield,[4],0.54
O=C(O)c1ccccc1C1=c2cc3c4c(c2Oc2c1cc1c5c2CCCN5CCC1)CCC[N+]=4CCC3.[Cl-] [Rhodamine 101],fluorescence quantum yield,[2]; in both organic and aqueous solutions,more than 0.90
"CN(C)c1ccc2c(c1)[Si](C)(C)c1cc(N(C)C)ccc1C21OC(=O)c2ccccc21 [SiR, reference compound]",absorption maximum λmax,[4]; PBS buffer pH 7.4,645 nm
same,emission maximum λem,[4]; PBS buffer pH 7.4,661 nm
same,extinction coefficient ε,[4]; PBS buffer pH 7.4,93000 M⁻¹ cm⁻¹
same,fluorescence quantum yield,[4],0.41
same,"D0.5 in 1,4-dioxane/water",[6],64.5
"N-Hydroxysuccinimidyl eater of N,N′-bis-(2,2,2-trifluoro-ethyl)-6′-carboxy-Q-rhodamine-β,β′-diol [Compound 5-NHS]",stability of N-hydroxysuccinimidyl (NHS) ester,[1],stable
